Source: US20220389061A1, “IMMUNOMODULATORS” (priority 2019, published 2022)
Starred links: 1 amine or outer side, 2 acyl side, 3 side chain; linkers in the order of their positions; H or OH if unused. Positions of bridges follow the written chain, without caps; N, C: chain ends. Non-standard residues stand in square brackets, D forms with d. Residues, ends and D or L forms follow the SMILES beside them. Groups on a side chain read outwards from the residue. *: point of attachment. Trp(1-CH2COOH) = N[C@@H](Cc1cn(CC(=O)O)c2ccccc12)C(=O)O; Benzoyl(2-(4-MeOPh)) = COc1ccc(-c2ccccc2C(=O)*)cc1; NH(benzothiophen-5-yl) = c1cc2cc(N*)ccc2s1; X95 = O=[N+]([O-])c1cccc(NC(=S)*)c1; X31 = S=C(Nc1cccc2c(Cl)c[nH]c12)*; X49 = N#Cc1ccccc1NC(=N)c1ccccc1N*; Hyp = O=C(O)[C@@H]1C[C@@H](O)CN1; X19 = CCOC(=O)c1ccc(NC(=S)*)cc1; X80 = S=C(Nc1ccc(-n2cccn2)cc1)*; X84 = COc1cc(NC(=S)*)cc(OC)c1OC; X96 = Fc1cc(F)c(NC(=S)*)c(F)c1; NMeNle = CCCC[C@H](NC)C(=O)O; X16 = S=C(Nc1ccc2c(c1)OCO2)*; X85 = S=C(Nc1c(Cl)cccc1Cl)*; X64 = COc1cc(OC)c(N*)cc1Cl; NMeA = CN[C@@H](C)C(=O)O; Dab = NCC[C@H](N)C(=O)O; X39 = CCCCOc1ccc(N*)cc1; Dap = NC[C@H](N)C(=O)O; CO = O=C([*:1])[*:2]

Biological target: T1, PD-1/PD-L1 (Homo sapiens, UniProt Q9NZQ7)
T1 construct: TVMV protease site linker (C); made in house; host or cells: HEK293T cells
Test: PD-1/PD-L1 Homogenous Time-Resolved Fluorescence (HTRF) binding assay
Settings: not given
How it was run: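 HTRF read-out using europium cryptate anti-Ig (1 nM) and APC anti-His (20 nM) on extracellular-domain fusion proteins in dPBS/0.1% BSA/0.05% Tween-20. Inhibitor first incubated 15 min with 10 nM PD-L1-His, followed by 20 nM PD-1-Ig for another 15 min.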

T1 sequence (Q9NZQ7 18-239): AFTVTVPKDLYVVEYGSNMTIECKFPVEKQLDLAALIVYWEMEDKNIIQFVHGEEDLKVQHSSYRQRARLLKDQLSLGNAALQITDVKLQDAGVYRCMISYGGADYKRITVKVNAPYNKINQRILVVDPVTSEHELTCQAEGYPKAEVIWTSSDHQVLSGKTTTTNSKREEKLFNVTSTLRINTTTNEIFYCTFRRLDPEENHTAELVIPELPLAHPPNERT

| Structure (SMILES) | IC50 |
| --- | --- |
| CCCC[C@H]1C(=O)N(C)[C@@H](CCCC)C(=O)N[C@@H](CC(C)C)C(=O)N[C@H](C(=O)NCC(N)=O)CSCC(=O)N[C@@H](Cc2ccc(O)cc2)C(=O)N(C)[C@@H](C)C(=O)N[C@@H](CC(N)=O)C(=O)N2CCC[C@H]2C(=O)N[C@@H](CNC(=S)Nc2cccc([N+](=O)[O-])c2)C(=O)N[C@@H](CC(C)C)C(=O)N2C[C@H](O)C[C@H]2C(=O)N[C@@H](Cc2c[nH]c3ccccc23)C(=O)N[C@@H](CCNC(=S)Nc2cccc([N+](=O)[O-])c2)C(=O)N[C@@H](Cc2cn(CC(=O)O)c3ccccc23)C(=O)N1C [Example 1036] ({CH2CO}-Y[NMeA]NP[Dap](X95)L[Hyp]W[Dab](X95)[Trp(1-CH2COOH)][NMeNle][NMeNle]LCG-NH2; thioether N-14) | 2.6 nM |

Same assay, conditions: PD-L1-His 10 nM pre-incubated with inhibitor, PD-1-Ig 20 nM; read-out: HTRF IC50

| IC50 | Structure (SMILES) |
| --- | --- |
| 0.6 nM | CCCC[C@H]1C(=O)N(C)[C@@H](CCCC)C(=O)N[C@@H](CC(C)C)C(=O)N[C@H](C(=O)NCC(N)=O)CSCC(=O)N[C@@H](Cc2ccc(O)cc2)C(=O)N(C)[C@@H](C)C(=O)N[C@@H](CC(N)=O)C(=O)N2CCC[C@H]2C(=O)N[C@@H](CNC(=S)Nc2ccc(C(=O)OCC)cc2)C(=O)N[C@@H](CC(C)C)C(=O)N2C[C@H](O)C[C@H]2C(=O)N[C@@H](Cc2c[nH]c3ccccc23)C(=O)N[C@@H](CCNC(=S)Nc2ccc(C(=O)OCC)cc2)C(=O)N[C@@H](Cc2cn(CC(=O)O)c3ccccc23)C(=O)N1C [Example 1043] ({CH2CO}-Y[NMeA]NP[Dap](X19)L[Hyp]W[Dab](X19)[Trp(1-CH2COOH)][NMeNle][NMeNle]LCG-NH2; thioether N-14) |
| 3.3 nM | CCCC[C@H]1C(=O)N(C)[C@@H](CCCC)C(=O)N[C@@H](CC(C)C)C(=O)N[C@H](C(=O)NCC(N)=O)CSCC(=O)N[C@@H](Cc2ccc(O)cc2)C(=O)N(C)[C@@H](C)C(=O)N[C@@H](CC(N)=O)C(=O)N2CCC[C@H]2C(=O)N[C@@H](CNC(=S)Nc2c(F)cc(F)cc2F)C(=O)N[C@@H](CC(C)C)C(=O)N2C[C@H](O)C[C@H]2C(=O)N[C@@H](Cc2c[nH]c3ccccc23)C(=O)N[C@@H](CCNC(=S)Nc2c(F)cc(F)cc2F)C(=O)N[C@@H](Cc2cn(CC(=O)O)c3ccccc23)C(=O)N1C [Example 1044] ({CH2CO}-Y[NMeA]NP[Dap](X96)L[Hyp]W[Dab](X96)[Trp(1-CH2COOH)][NMeNle][NMeNle]LCG-NH2; thioether N-14) |
| 2.6 nM | CCCC[C@H]1C(=O)N(C)[C@@H](CCCC)C(=O)N[C@@H](CC(C)C)C(=O)N[C@H](C(=O)NCC(N)=O)CSCC(=O)N[C@@H](Cc2ccc(O)cc2)C(=O)N(C)[C@@H](C)C(=O)N[C@@H](CC(N)=O)C(=O)N2CCC[C@H]2C(=O)N[C@@H](CNC(=O)Nc2ccccc2C(=N)Nc2ccccc2C#N)C(=O)N[C@@H](CC(C)C)C(=O)N2C[C@H](O)C[C@H]2C(=O)N[C@@H](Cc2c[nH]c3ccccc23)C(=O)N[C@@H](CCNC(=O)Nc2ccccc2C(=N)Nc2ccccc2C#N)C(=O)N[C@@H](Cc2cn(CC(=O)O)c3ccccc23)C(=O)N1C [Example 1087] ({CH2CO}-Y[NMeA]NP[Dap]([CO-X49])L[Hyp]W[Dab]([CO-X49])[Trp(1-CH2COOH)][NMeNle][NMeNle]LCG-NH2; thioether N-14) |
| 8.5 nM | CCCCOc1ccc(NC(=O)NCC[C@@H]2NC(=O)[C@H](Cc3c[nH]c4ccccc34)NC(=O)[C@@H]3C[C@@H](O)CN3C(=O)[C@H](CC(C)C)NC(=O)[C@H](CNC(=O)Nc3ccc(OCCCC)cc3)NC(=O)[C@@H]3CCCN3C(=O)[C@H](CC(N)=O)NC(=O)[C@H](C)N(C)C(=O)[C@H](Cc3ccc(O)cc3)NC(=O)CSC[C@@H](C(=O)NCC(N)=O)NC(=O)[C@H](CC(C)C)NC(=O)[C@H](CCCC)N(C)C(=O)[C@H](CCCC)N(C)C(=O)[C@H](Cc3cn(CC(=O)O)c4ccccc34)NC2=O)cc1 [Example 1120] ({CH2CO}-Y[NMeA]NP[Dap]([CO-X39])L[Hyp]W[Dab]([CO-X39])[Trp(1-CH2COOH)][NMeNle][NMeNle]LCG-NH2; thioether N-14) |
| 5.3 nM | CCCC[C@H]1C(=O)N(C)[C@@H](CCCC)C(=O)N[C@@H](CC(C)C)C(=O)N[C@H](C(=O)NCC(N)=O)CSCC(=O)N[C@@H](Cc2ccc(O)cc2)C(=O)N(C)[C@@H](C)C(=O)N[C@@H](CC(N)=O)C(=O)N2CCC[C@H]2C(=O)N[C@@H](CN)C(=O)N[C@@H](CC(C)C)C(=O)N2C[C@H](O)C[C@H]2C(=O)N[C@@H](Cc2c[nH]c3ccccc23)C(=O)N[C@@H](CCNC(=O)Nc2ccc3sccc3c2)C(=O)N[C@@H](Cc2cn(CC(=O)O)c3ccccc23)C(=O)N1C [Example 3038] ({CH2CO}-Y[NMeA]NP[Dap]L[Hyp]W[Dab]([CO-NH(benzothiophen-5-yl)])[Trp(1-CH2COOH)][NMeNle][NMeNle]LCG-NH2; thioether N-14) |
| 0.6 nM | CCCC[C@H]1C(=O)N(C)[C@@H](CCCC)C(=O)N[C@@H](CC(C)C)C(=O)N[C@H](C(=O)NCC(N)=O)CSCC(=O)N[C@@H](Cc2ccc(O)cc2)C(=O)N(C)[C@@H](C)C(=O)N[C@@H](CC(N)=O)C(=O)N2CCC[C@H]2C(=O)N[C@@H](CNC(=S)Nc2cc(OC)c(OC)c(OC)c2)C(=O)N[C@@H](CC(C)C)C(=O)N2C[C@H](O)C[C@H]2C(=O)N[C@@H](Cc2c[nH]c3ccccc23)C(=O)N[C@@H](CCNC(=S)Nc2cc(OC)c(OC)c(OC)c2)C(=O)N[C@@H](Cc2cn(CC(=O)O)c3ccccc23)C(=O)N1C [Example 1083] ({CH2CO}-Y[NMeA]NP[Dap](X84)L[Hyp]W[Dab](X84)[Trp(1-CH2COOH)][NMeNle][NMeNle]LCG-NH2; thioether N-14) |
| 2.4 nM | CCCC[C@H]1C(=O)N(C)[C@@H](CCCC)C(=O)N[C@@H](CC(C)C)C(=O)N[C@H](C(=O)NCC(N)=O)CSCC(=O)N[C@@H](Cc2ccc(O)cc2)C(=O)N(C)[C@@H](C)C(=O)N[C@@H](CC(N)=O)C(=O)N2CCC[C@H]2C(=O)N[C@@H](CNC(=S)Nc2c(Cl)cccc2Cl)C(=O)N[C@@H](CC(C)C)C(=O)N2C[C@H](O)C[C@H]2C(=O)N[C@@H](Cc2c[nH]c3ccccc23)C(=O)N[C@@H](CCN)C(=O)N[C@@H](Cc2cn(CC(=O)O)c3ccccc23)C(=O)N1C [Example 1038] ({CH2CO}-Y[NMeA]NP[Dap](X85)L[Hyp]W[Dab][Trp(1-CH2COOH)][NMeNle][NMeNle]LCG-NH2; thioether N-14) |
| 2.4 nM | CCCC[C@H]1C(=O)N(C)[C@@H](CCCC)C(=O)N[C@@H](CC(C)C)C(=O)N[C@H](C(=O)NCC(N)=O)CSCC(=O)N[C@@H](Cc2ccc(O)cc2)C(=O)N(C)[C@@H](C)C(=O)N[C@@H](CC(N)=O)C(=O)N2CCC[C@H]2C(=O)N[C@@H](CNC(=S)Nc2ccc(-n3cccn3)cc2)C(=O)N[C@@H](CC(C)C)C(=O)N2C[C@H](O)C[C@H]2C(=O)N[C@@H](Cc2c[nH]c3ccccc23)C(=O)N[C@@H](CCNC(=S)Nc2ccc(-n3cccn3)cc2)C(=O)N[C@@H](Cc2cn(CC(=O)O)c3ccccc23)C(=O)N1C [Example 1094] ({CH2CO}-Y[NMeA]NP[Dap](X80)L[Hyp]W[Dab](X80)[Trp(1-CH2COOH)][NMeNle][NMeNle]LCG-NH2; thioether N-14) |
| 2.7 nM | CCCC[C@H]1C(=O)N(C)[C@@H](CCCC)C(=O)N[C@@H](CC(C)C)C(=O)N[C@H](C(=O)NCC(N)=O)CSCC(=O)N[C@@H](Cc2ccc(O)cc2)C(=O)N(C)[C@@H](C)C(=O)N[C@@H](CC(N)=O)C(=O)N2CCC[C@H]2C(=O)N[C@@H](CNC(=O)Nc2cc(Cl)c(OC)cc2OC)C(=O)N[C@@H](CC(C)C)C(=O)N2C[C@H](O)C[C@H]2C(=O)N[C@@H](Cc2c[nH]c3ccccc23)C(=O)N[C@@H](CCN)C(=O)N[C@@H](Cc2cn(CC(=O)O)c3ccccc23)C(=O)N1C [Example 1067] ({CH2CO}-Y[NMeA]NP[Dap]([CO-X64])L[Hyp]W[Dab][Trp(1-CH2COOH)][NMeNle][NMeNle]LCG-NH2; thioether N-14) |
| 2.7 nM | CCCC[C@H]1C(=O)N(C)[C@@H](CCCC)C(=O)N[C@@H](CC(C)C)C(=O)N[C@H](C(=O)NCC(N)=O)CSCC(=O)N[C@@H](Cc2ccc(O)cc2)C(=O)N(C)[C@@H](C)C(=O)N[C@@H](CC(N)=O)C(=O)N2CCC[C@H]2C(=O)N[C@@H](CNC(=S)Nc2ccc3c(c2)OCO3)C(=O)N[C@@H](CC(C)C)C(=O)N2C[C@H](O)C[C@H]2C(=O)N[C@@H](Cc2c[nH]c3ccccc23)C(=O)N[C@@H](CCNC(=S)Nc2ccc3c(c2)OCO3)C(=O)N[C@@H](Cc2cn(CC(=O)O)c3ccccc23)C(=O)N1C [Example 3050] ({CH2CO}-Y[NMeA]NP[Dap](X16)L[Hyp]W[Dab](X16)[Trp(1-CH2COOH)][NMeNle][NMeNle]LCG-NH2; thioether N-14) |
| 3.1 nM | CCCC[C@H]1C(=O)N(C)[C@@H](CCCC)C(=O)N[C@@H](CC(C)C)C(=O)N[C@H](C(=O)NCC(N)=O)CSCC(=O)N[C@@H](Cc2ccc(O)cc2)C(=O)N(C)[C@@H](C)C(=O)N[C@@H](CC(N)=O)C(=O)N2CCC[C@H]2C(=O)N[C@@H](CN)C(=O)N[C@@H](CC(C)C)C(=O)N2C[C@H](O)C[C@H]2C(=O)N[C@@H](Cc2c[nH]c3ccccc23)C(=O)N[C@@H](CCNC(=S)Nc2cccc3c(Cl)c[nH]c23)C(=O)N[C@@H](Cc2cn(CC(=O)O)c3ccccc23)C(=O)N1C [Example 3031] ({CH2CO}-Y[NMeA]NP[Dap]L[Hyp]W[Dab](X31)[Trp(1-CH2COOH)][NMeNle][NMeNle]LCG-NH2; thioether N-14) |

| Structure (SMILES) | IC50 |
| --- | --- |
| CCCC[C@H]1C(=O)N(C)[C@@H](CCCC)C(=O)N[C@@H](CC(C)C)C(=O)N[C@H](C(=O)NCC(N)=O)CSCC(=O)N[C@@H](Cc2ccc(O)cc2)C(=O)N(C)[C@@H](C)C(=O)N[C@@H](CC(N)=O)C(=O)N2CCC[C@H]2C(=O)N[C@@H](CNC(=O)c2ccccc2-c2ccc(OC)cc2)C(=O)N[C@@H](CC(C)C)C(=O)N2C[C@H](O)C[C@H]2C(=O)N[C@@H](Cc2c[nH]c3ccccc23)C(=O)N[C@@H](CCN)C(=O)N[C@@H](Cc2cn(CC(=O)O)c3ccccc23)C(=O)N1C [Example 1061] ({CH2CO}-Y[NMeA]NP[Dap](Benzoyl(2-(4-MeOPh)))L[Hyp]W[Dab][Trp(1-CH2COOH)][NMeNle][NMeNle]LCG-NH2; thioether N-14) | 4 nM |
